Measured values reported in article PMC5201331, “Subchronic Toxicities of HZ1006, a Hydroxamate-Based Histone Deacetylase Inhibitor, in Beagle Dogs and Sprague-Dawley Rats” (International Journal of Environmental Research and Public …, 2016).

Test system: Beagle dogs
Experiment: Subchronic toxicity test in Beagle dogs: serum biochemistry
Type: in vivo
Experimental: HZ1006 was administered orally to dogs (four/sex/group) at doses of 80, 40, 20, 5 and 0 (control) mg/kg/day, and the dosage volume was 2 mL/kg. The dogs received test doses with the exact amounts on a weekly basis based on current body weights. […] The other dogs in the above groups were dissected on the planned days. For the other groups, half of the dogs were anatomized on d28 and the remaining half on d42.
The following indexes were examined for the dogs used in the study, twice during the pre-dosage period and on d14, d28 and d42. The following parameters were evaluated on d28 and d42 for the rats in the study:
The animal blood samples were collected in the tubes containing the coagulator and centrifuged at 500 g for 10 min; the supernatant was then collected into a new tube. The serum biochemistry indexes included the following: alanine aminotransferase (ALT), alkaline phosphatase (ALP), aspartate aminotransferase (AST), blood urea (BU), lactate dehydrogenase (LDH), total bilirubin (TBIL), creatinine (Crea), albumin (ALB), total protein (TP), triglycerides (TG), total cholesterol (TCH), γ-glutamyltranspeptidase (g-GT), glucose (GLU), creatine phosphokinase (CPK), uric acid (UA), phosphorus (P), and calcium (Ca^2+). The above parameters were analyzed using an Automatic Analyzer 7080 provided by Hitachi High-Technologies Corp. (Tokyo, Japan). An Na/K/Cl Analyzer EasyLyte PLUS from Medica Corp. (Bedford, MA, USA), was used to determine the levels of chloride (Cl^−), sodium (Na^+) and potassium (K^+) in the blood samples.

[1] = dog ♀6 (80 mg/kg/day oral), d0 (pre-dose)
[2] = dog ♀6 (80 mg/kg/day oral), d14 line (moribund, euthanized d8)
[3] = dog ♀28 (40 mg/kg/day oral), d0 (pre-dose)
[4] = dog ♀28 (40 mg/kg/day oral), d14 (died d16)
[5] = dogs, 5 mg/kg/day oral, d0 (pre-dose)
[6] = dogs, 5 mg/kg/day oral, d42 (recovery)
[7] = dogs, 20 mg/kg/day oral, d0 (pre-dose)

In the case of CCCCCCCNc1cc(/C=C/C(=O)NO)ccc1OCCN(CC)CC [HZ1006], the “ALP: Alkaline phosphatase” value [1] is reported as 1.50 µmol/s/L, the “ALT: Alanine aminotransferase” value [1] is reported as 487 nmol/s/L and the “AST: Aspartate aminotransferase” value [1] is reported as 456 nmol/s/L. For the same compound, the “BU: Blood urea” value [1] was 4.04 mmol/L, the “CPK: Creatine phosphokinase” value [1] was 3.06 µmol/s/L and the “CREA: Creatinine” value [1] was 52.8 µmol/L. The “LDH: Lactate dehydrogenase” value [1] was 2.78 µmol/s/L, the “TBIL: Total bilirubin” value [1] was 2.95 µmol/L and the “TCH: Total cholesterol” value [1] was 3.27 mmol/L. The “ALP: Alkaline phosphatase” value [2] was 3.86 µmol/s/L, the “ALT: Alanine aminotransferase” value [2] was 466 nmol/s/L and the “AST: Aspartate aminotransferase” value [2] was 1907 nmol/s/L. The “BU: Blood urea” value [2] was 15.20 mmol/L, the “CPK: Creatine phosphokinase” value [2] was 57.57 µmol/s/L and the “CREA: Creatinine” value [2] was 82.4 µmol/L. For the same compound, the “LDH: Lactate dehydrogenase” value [2] was 2.91 µmol/s/L, the “TBIL: Total bilirubin” value [2] was 11.53 µmol/L and the “TCH: Total cholesterol” value [2] was 11.04 mmol/L. For the same compound, the “TG: Triglycerides” value (dog ♀6 (80 mg/kg/day oral), printed in d0 line) was 1.60 mmol/L, the “TCH: Total cholesterol” value (dog ♀6 (80 mg/kg/day oral), printed in d42 line) was 0.31 mmol/L and the “ALP: Alkaline phosphatase” value [3] was 1.33 µmol/s/L. For the same compound, the “ALT: Alanine aminotransferase” value [3] was 428 nmol/s/L, the “AST: Aspartate aminotransferase” value [3] was 398 nmol/s/L and the “BU: Blood urea” value [3] was 4.08 mmol/L. The “CPK: Creatine phosphokinase” value [3] was 2.47 µmol/s/L, the “CREA: Creatinine” value [3] was 47.9 µmol/L and the “LDH: Lactate dehydrogenase” value [3] was 2.21 µmol/s/L. The “TBIL: Total bilirubin” value [3] was 2.18 µmol/L, the “TCH: Total cholesterol” value [3] was 5.85 mmol/L and the “ALP: Alkaline phosphatase” value [4] was 3.16 µmol/s/L. The “ALT: Alanine aminotransferase” value [4] was 852 nmol/s/L, the “AST: Aspartate aminotransferase” value [4] was 4924 nmol/s/L and the “BU: Blood urea” value [4] was 4.89 mmol/L. For the same compound, the “CPK: Creatine phosphokinase” value [4] was 6.39 µmol/s/L, the “CREA: Creatinine” value [4] was 37.8 µmol/L and the “LDH: Lactate dehydrogenase” value [4] was 2.06 µmol/s/L. The “TBIL: Total bilirubin” value [4] was 9.65 µmol/L, the “TCH: Total cholesterol” value [4] was 10.73 mmol/L and the “ALP: Alkaline phosphatase” value [5] was 1.47 ± 0.30 µmol/s/L. For the same compound, the “ALT: Alanine aminotransferase” value [5] was 559 ± 120 nmol/s/L, the “AST: Aspartate aminotransferase” value [5] was 463 ± 106 nmol/s/L and the “BU: Blood urea” value [5] was 4.03 ± 0.52 mmol/L. The “CPK: Creatine phosphokinase” value [5] was 2.94 ± 1.40 µmol/s/L, the “CREA: Creatinine” value [5] was 51.5 ± 9.3 µmol/L and the “LDH: Lactate dehydrogenase” value [5] was 3.08 ± 1.36 µmol/s/L. The “TBIL: Total bilirubin” value [5] was 2.34 ± 0.31 µmol/L, the “TCH: Total cholesterol” value [5] was 4.28 ± 0.36 mmol/L and the “TG: Triglycerides” value [5] was 0.43 ± 0.11 mmol/L. The “ALP: Alkaline phosphatase” value (dogs, 5 mg/kg/day oral, d14) was 1.45 ± 0.35 µmol/s/L, the “ALT: Alanine aminotransferase” value (dogs, 5 mg/kg/day oral, d14) was 521 ± 116 nmol/s/L and the “AST: Aspartate aminotransferase” value (dogs, 5 mg/kg/day oral, d14) was 442 ± 105 nmol/s/L. For the same compound, the “BU: Blood urea” value (dogs, 5 mg/kg/day oral, d14) was 4.10 ± 0.90 mmol/L, the “CPK: Creatine phosphokinase” value (dogs, 5 mg/kg/day oral, d14) was 2.63 ± 1.36 µmol/s/L and the “CREA: Creatinine” value (dogs, 5 mg/kg/day oral, d14) was 51.0 ± 9.9 µmol/L. For the same compound, the “LDH: Lactate dehydrogenase” value (dogs, 5 mg/kg/day oral, d14) was 2.27 ± 1.24 µmol/s/L, the “TBIL: Total bilirubin” value (dogs, 5 mg/kg/day oral, d14) was 2.01 ± 0.41 µmol/L and the “TCH: Total cholesterol” value (dogs, 5 mg/kg/day oral, d14) was 3.98 ± 0.64 mmol/L. The “TG: Triglycerides” value (dogs, 5 mg/kg/day oral, d14) was 0.39 ± 0.08 mmol/L, the “ALP: Alkaline phosphatase” value (dogs, 5 mg/kg/day oral, d28) was 1.51 ± 0.29 µmol/s/L and the “ALT: Alanine aminotransferase” value (dogs, 5 mg/kg/day oral, d28) was 593 ± 105 nmol/s/L. For the same compound, the “AST: Aspartate aminotransferase” value (dogs, 5 mg/kg/day oral, d28) was 424 ± 109 nmol/s/L, the “BU: Blood urea” value (dogs, 5 mg/kg/day oral, d28) was 3.82 ± 0.51 mmol/L and the “CPK: Creatine phosphokinase” value (dogs, 5 mg/kg/day oral, d28) was 2.43 ± 0.19 µmol/s/L. The “CREA: Creatinine” value (dogs, 5 mg/kg/day oral, d28) was 51.4 ± 10.9 µmol/L, the “LDH: Lactate dehydrogenase” value (dogs, 5 mg/kg/day oral, d28) was 2.71 ± 1.12 µmol/s/L and the “TBIL: Total bilirubin” value (dogs, 5 mg/kg/day oral, d28) was 2.08 ± 0.52 µmol/L. The “TCH: Total cholesterol” value (dogs, 5 mg/kg/day oral, d28) was 4.24 ± 0.56 mmol/L, the “TG: Triglycerides” value (dogs, 5 mg/kg/day oral, d28) was 0.35 ± 0.11 mmol/L and the “ALP: Alkaline phosphatase” value [6] was 1.45 ± 0.37 µmol/s/L. For the same compound, the “ALT: Alanine aminotransferase” value [6] was 558 ± 90 nmol/s/L, the “AST: Aspartate aminotransferase” value [6] was 451 ± 79 nmol/s/L and the “BU: Blood urea” value [6] was 4.83 ± 0.20 mmol/L. The “CPK: Creatine phosphokinase” value [6] was 2.97 ± 0.18 µmol/s/L, the “CREA: Creatinine” value [6] was 55.6 ± 4.5 µmol/L and the “LDH: Lactate dehydrogenase” value [6] was 2.21 ± 1.32 µmol/s/L. For the same compound, the “TBIL: Total bilirubin” value [6] was 2.01 ± 0.33 µmol/L, the “TCH: Total cholesterol” value [6] was 3.99 ± 0.41 mmol/L and the “TG: Triglycerides” value [6] was 0.31 ± 0.09 mmol/L. For the same compound, the “ALP: Alkaline phosphatase” value [7] was 1.48 ± 0.48 µmol/s/L, the “ALT: Alanine aminotransferase” value [7] was 535 ± 92 nmol/s/L and the “AST: Aspartate aminotransferase” value [7] was 456 ± 92 nmol/s/L. For the same compound, the “BU: Blood urea” value [7] was 4.35 ± 0.98 mmol/L, the “CPK: Creatine phosphokinase” value [7] was 2.98 ± 0.64 µmol/s/L and the “CREA: Creatinine” value [7] was 51.6 ± 7.5 µmol/L. The “LDH: Lactate dehydrogenase” value [7] was 2.85 ± 0.86 µmol/s/L, the “TBIL: Total bilirubin” value [7] was 2.55 ± 0.28 µmol/L and the “TCH: Total cholesterol” value [7] was 4.31 ± 0.36 mmol/L. For the same compound, the “TG: Triglycerides” value [7] was 0.42 ± 0.09 mmol/L, the “ALP: Alkaline phosphatase” value (dogs, 20 mg/kg/day oral, d14) was 0.85 ± 0.25 µmol/s/L and the “ALT: Alanine aminotransferase” value (dogs, 20 mg/kg/day oral, d14) was 425 ± 105 nmol/s/L. The “AST: Aspartate aminotransferase” value (dogs, 20 mg/kg/day oral, d14) was 384 ± 56 nmol/s/L, the “BU: Blood urea” value (dogs, 20 mg/kg/day oral, d14) was 4.52 ± 1.05 mmol/L and the “CPK: Creatine phosphokinase” value (dogs, 20 mg/kg/day oral, d14) was 2.43 ± 0.48 µmol/s/L. The “CREA: Creatinine” value (dogs, 20 mg/kg/day oral, d14) was 58.6 ± 10.6 µmol/L, the “LDH: Lactate dehydrogenase” value (dogs, 20 mg/kg/day oral, d14) was 1.23 ± 0.45 µmol/s/L and the “TBIL: Total bilirubin” value (dogs, 20 mg/kg/day oral, d14) was 1.85 ± 0.16 µmol/L. For the same compound, the “TCH: Total cholesterol” value (dogs, 20 mg/kg/day oral, d14) was 3.16 ± 0.34 mmol/L and the “TG: Triglycerides” value (dogs, 20 mg/kg/day oral, d14) was 0.29 ± 0.08 mmol/L.
